Results from ChEMBL document CHEMBL1148442, “Design, synthesis, and evaluation of metabolism-based analogues of haloperidol incapable of forming MPP+-like species” (J Med Chem, 2004).

Columns and labels:
[1] = molecular target: D(3) dopamine receptor (Homo sapiens) (UniProt P35462)
Description: Displacement of [3H]7-OH-DPAT from human Dopamine receptor D3

[2] = molecular target: T1, D(4) dopamine receptor (Homo sapiens) (UniProt P21917)
T1 sequence (whole entry): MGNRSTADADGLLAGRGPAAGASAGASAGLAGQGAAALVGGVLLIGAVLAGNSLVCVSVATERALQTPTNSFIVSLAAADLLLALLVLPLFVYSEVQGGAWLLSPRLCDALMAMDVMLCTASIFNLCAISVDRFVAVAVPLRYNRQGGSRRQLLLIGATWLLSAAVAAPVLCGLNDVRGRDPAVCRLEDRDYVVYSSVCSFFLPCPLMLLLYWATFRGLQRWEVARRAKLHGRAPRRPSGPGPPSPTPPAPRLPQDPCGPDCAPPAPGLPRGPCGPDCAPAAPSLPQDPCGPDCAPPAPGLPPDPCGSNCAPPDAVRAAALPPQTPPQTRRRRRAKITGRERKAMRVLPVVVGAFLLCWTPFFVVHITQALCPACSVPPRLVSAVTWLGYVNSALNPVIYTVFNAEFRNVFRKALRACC
Description: Displacement of [3H]spiperone from human Dopamine receptor D4

[3] = molecular target: D(2) dopamine receptor (Homo sapiens) (UniProt P14416)
D(2) dopamine receptor (Homo sapiens), sequence (P14416 whole entry): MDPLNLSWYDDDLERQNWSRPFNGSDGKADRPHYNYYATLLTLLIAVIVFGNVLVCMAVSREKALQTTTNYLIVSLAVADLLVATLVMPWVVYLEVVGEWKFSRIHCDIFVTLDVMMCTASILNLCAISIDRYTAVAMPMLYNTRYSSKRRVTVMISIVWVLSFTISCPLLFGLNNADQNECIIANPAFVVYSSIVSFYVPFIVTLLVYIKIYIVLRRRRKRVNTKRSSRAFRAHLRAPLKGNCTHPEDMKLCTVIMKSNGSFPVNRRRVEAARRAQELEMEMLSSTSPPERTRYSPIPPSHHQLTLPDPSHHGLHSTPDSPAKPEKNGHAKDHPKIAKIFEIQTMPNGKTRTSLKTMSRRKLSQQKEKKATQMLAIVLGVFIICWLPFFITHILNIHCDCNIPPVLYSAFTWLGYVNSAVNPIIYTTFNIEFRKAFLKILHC
Description: Displacement of [3H]spiperone from human Dopamine receptor D2

D(3) dopamine receptor (Homo sapiens), sequence (P35462 whole entry): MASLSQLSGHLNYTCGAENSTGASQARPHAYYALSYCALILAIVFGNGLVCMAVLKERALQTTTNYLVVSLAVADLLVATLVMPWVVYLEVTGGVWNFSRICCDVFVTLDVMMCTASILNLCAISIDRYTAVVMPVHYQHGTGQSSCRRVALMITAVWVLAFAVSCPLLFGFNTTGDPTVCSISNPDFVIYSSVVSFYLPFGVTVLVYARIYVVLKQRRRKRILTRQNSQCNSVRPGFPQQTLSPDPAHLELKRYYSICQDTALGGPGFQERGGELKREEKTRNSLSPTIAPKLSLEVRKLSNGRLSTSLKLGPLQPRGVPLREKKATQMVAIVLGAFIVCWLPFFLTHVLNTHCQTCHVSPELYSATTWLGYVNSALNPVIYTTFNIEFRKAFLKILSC

## O=C(CCCN1CCC(c2ccc(Cl)cc2)CC1)c1ccc(F)cc1
[1]
  pKi: 7.34
[2]
  pKi: 7.59

## O=C(CCCN1CCC(C(O)c2ccc(Cl)cc2)CC1)c1ccc(F)cc1 (stereo not given)
[1]
  pKi: 7.11
[3]
  pKi: 7.62
[2]
  pKi: 6.91

## O=C(CCCN1CCC(c2ccc(Cl)cc2)C1)c1ccc(F)cc1 (stereo not given)
[3]
  pKi: 7.81
[2]
  pKi: 7.82

## O=C(CCCN1CCCC(O)(c2ccc(Cl)cc2)CC1)c1ccc(F)cc1 (stereo not given)
[3]
  pKi: 8.96

## O=C(CCCN1CCC(CO)(c2ccc(Cl)cc2)C1)c1ccc(F)cc1 (stereo not given)
[1]
  pKi: 6.78
[3]
  pKi: 7.36
[2]
  pKi: 7.62

## O=C(CCCN1CCC(CO)(c2ccc(Cl)cc2)CC1)c1ccc(F)cc1
[1]
  pKi: 6.96
[3]
  pKi: 7.81
[2]
  pKi: 7.11

## O=C(CCC[n+]1ccc(-c2ccc(Cl)cc2)cc1)c1ccc(F)cc1
[1]
  pKi: < 6
[3]
  pKi: < 6
[2]
  pKi: < 6

## O=C(CCCN1CCC(CCO)(c2ccc(Cl)cc2)C1)c1ccc(F)cc1 (stereo not given)
[1]
  pKi: 7.49
[3]
  pKi: 7.64
[2]
  pKi: 6.71

## CN(CCCC(=O)c1ccc(F)cc1)CCCC(O)c1ccc(Cl)cc1 (stereo not given)
[1]
  pKi: 6.79
[2]
  pKi: 6.72

## O=C(CCCN1CCC(O)(Cc2ccc(Cl)cc2)CC1)c1ccc(F)cc1
[1]
  pKi: 8.05
[3]
  pKi: 8.1
[2]
  pKi: 7.23
